Values after ≈ are worked out from the molar mass of the structure shown.
Key:
Type in all cases: functional
[1] = tested on: Pseudomonas aeruginosa; assay: Antimicrobial activity against Pseudomonas aeruginosa
[2] = tested on: Staphylococcus aureus; assay: Antimicrobial activity against Staphylococcus aureus
[3] = tested on: Escherichia coli; assay: Antimicrobial activity against Escherichia coli
[4] = tested on: Aspergillus niger; assay: Antifungal activity against Aspergillus niger assessed as zone of inhibition at 250 ug/ml; conditions: read-out: IZ
[5] = tested on: Bacillus cereus; assay: Antimicrobial activity against Bacillus cereus assessed as zone of inhibition at 250 ug/ml; conditions: read-out: IZ
[6] = tested on: Escherichia coli; assay: Antimicrobial activity against Escherichia coli assessed as zone of inhibition at 250 ug/ml; conditions: read-out: IZ
[7] = tested on: Pseudomonas aeruginosa; assay: Antimicrobial activity against Pseudomonas aeruginosa assessed as zone of inhibition at 250 ug/ml; conditions: read-out: IZ
[8] = tested on: Staphylococcus aureus; assay: Antimicrobial activity against Staphylococcus aureus assessed as zone of inhibition at 250 ug/ml; conditions: read-out: IZ
[9] = tested on: Candida albicans; assay: Antifungal activity against Candida albicans assessed as zone of inhibition at 250 ug/ml; conditions: read-out: IZ
[10] = tested on: Aspergillus niger; assay: Antifungal activity against Aspergillus niger
[11] = tested on: Candida albicans; assay: Antifungal activity against Candida albicans
[12] = tested on: Bacillus subtilis; assay: Antimicrobial activity against Bacillus subtilis

Structure (SMILES) | MIC [1] | MIC [2] | MIC [3] | MIC [10] | MIC [11] | MIC [12] | zone of inhibition at 250 µg/mL [4] | zone of inhibition at 250 µg/mL [5] | zone of inhibition at 250 µg/mL [6] | zone of inhibition at 250 µg/mL [7] | zone of inhibition at 250 µg/mL [8] | zone of inhibition at 250 µg/mL [9]
CC(=O)N1N=C(Cn2cc(-c3nn(-c4ccncc4)cc3-c3nnnn3-c3ccc(C(F)(F)F)cc3)c3cc(Cl)ccc32)OC1(C)c1ccc(C(F)(F)F)cc1 (stereo not drawn) |  |  |  |  |  |  | 8 to 20 mm | 8 to 20 mm | 8 to 20 mm | 8 to 20 mm | 8 to 20 mm | 8 to 20 mm
CC(=O)N1N=C(Cn2cc(-c3nn(-c4ccncc4)cc3-c3nnnn3-c3ccccc3)c3cc(Cl)ccc32)OC1(C)c1ccc(C(F)(F)F)cc1 (stereo not drawn) |  |  |  |  |  |  | 8 to 20 mm | 8 to 20 mm | 8 to 20 mm | 8 to 20 mm | 8 to 20 mm | 8 to 20 mm
Cc1cccc2oc(-c3ccc(F)cc3)c(OCc3nnn[nH]3)c(=O)c12 | 50 to 400 mg/L (≈ 142 to 1140 µM) | 50 to 400 mg/L (≈ 142 to 1140 µM) | 50 to 400 mg/L (≈ 142 to 1140 µM) |  |  | 50 to 400 mg/L (≈ 142 to 1140 µM) |  |  |  |  |  | 
CC(=O)N1N=C(Cn2cc(-c3nn(-c4ccncc4)cc3-c3nnnn3-c3ccc([N+](=O)[O-])cc3)c3cc(Cl)ccc32)OC1(C)c1ccc(C(F)(F)F)cc1 (stereo not drawn) |  |  |  |  |  |  | 8 to 20 mm | 8 to 20 mm | 8 to 20 mm | 8 to 20 mm | 8 to 20 mm | 8 to 20 mm
O=C1S/C(=C\c2ccc(F)cc2)C(=O)N1Cc1ccc(-c2ccccc2-c2nnn[nH]2)cc1 |  |  | 7.75 to 35.4 mg/L (≈ 16.9 to 77.4 µM) |  |  | 7.75 to 35.4 mg/L (≈ 16.9 to 77.4 µM) |  |  |  |  |  | 
CC(=O)N1N=C(Cn2cc(-c3nn(-c4ccncc4)cc3-c3nnnn3-c3ccc(Br)cc3)c3cc(Cl)ccc32)OC1(C)c1ccc(C(F)(F)F)cc1 (stereo not drawn) |  |  |  |  |  |  | 8 to 20 mm | 8 to 20 mm | 8 to 20 mm | 8 to 20 mm | 8 to 20 mm | 8 to 20 mm
O=C1S/C(=C\c2ccccc2)C(=O)N1Cc1ccc(-c2ccccc2-c2nnn[nH]2)cc1 |  |  | 7.75 to 35.4 mg/L (≈ 17.6 to 80.6 µM) |  |  | 7.75 to 35.4 mg/L (≈ 17.6 to 80.6 µM) |  |  |  |  |  | 
COc1ccc(-n2nnnc2-c2cn(-c3ccncc3)nc2-c2cn(CC3=NN(C(C)=O)C(C)(c4ccc(C(F)(F)F)cc4)O3)c3ccc(Cl)cc23)cc1 (stereo not drawn) |  |  |  |  |  |  | 8 to 20 mm | 8 to 20 mm | 8 to 20 mm | 8 to 20 mm | 8 to 20 mm | 8 to 20 mm
CC(=O)N1N=C(Cn2cc(-c3nn(-c4ccncc4)cc3-c3nnnn3-c3ccc(Cl)cc3)c3cc(Cl)ccc32)OC1(C)c1ccc(C(F)(F)F)cc1 (stereo not drawn) |  |  |  |  |  |  | 8 to 20 mm | 8 to 20 mm | 8 to 20 mm | 8 to 20 mm | 8 to 20 mm | 8 to 20 mm
CC(=O)N1N=C(Cn2cc(-c3nn(-c4ccncc4)cc3-c3nnnn3-c3ccc(C)cc3)c3cc(Cl)ccc32)OC1(C)c1ccc(C(F)(F)F)cc1 (stereo not drawn) |  |  |  |  |  |  | 8 to 20 mm | 8 to 20 mm | 8 to 20 mm | 8 to 20 mm | 8 to 20 mm | 8 to 20 mm

Now from value to compound, other results behind:

MIC [1] | MIC [2] | MIC [3] | MIC [10] | MIC [11] | MIC [12] | Structure (SMILES) | zone of inhibition at 250 µg/mL [4] | zone of inhibition at 250 µg/mL [5] | zone of inhibition at 250 µg/mL [6] | zone of inhibition at 250 µg/mL [7] | zone of inhibition at 250 µg/mL [8] | zone of inhibition at 250 µg/mL [9]
> 320 mg/L | > 320 mg/L | > 320 mg/L |  |  |  | CC(C)(C)Nc1c(-c2cc3ccccc3n3nnnc23)nc2sc(C#N)cn12 |  |  |  |  |  | 
6.25 to 100 mg/L (≈ 18.1 to 290 µM) | 6.25 to 100 mg/L (≈ 18.1 to 290 µM) | 6.25 to 100 mg/L (≈ 18.1 to 290 µM) | 6.25 to 100 mg/L (≈ 18.1 to 290 µM) | 6.25 to 100 mg/L (≈ 18.1 to 290 µM) |  | COc1ccc(C(=O)/C=C/c2cc3cc(C)ccc3n3nnnc23)cc1 |  |  |  |  |  | 
> 320 mg/L | > 320 mg/L | > 320 mg/L |  |  |  | COc1ccc(Nc2c(-c3cc4ccccc4n4nnnc34)nc3sccn23)cc1 |  |  |  |  |  | 
6.25 to 100 mg/L (≈ 19.5 to 312 µM) | 6.25 to 100 mg/L (≈ 19.5 to 312 µM) | 6.25 to 100 mg/L (≈ 19.5 to 312 µM) | 6.25 to 100 mg/L (≈ 19.5 to 312 µM) | 6.25 to 100 mg/L (≈ 19.5 to 312 µM) |  | Cc1ccc2cc(/C=C/C(=O)c3cccs3)c3nnnn3c2c1 |  |  |  |  |  | 
 |  | 7.75 to 35.4 mg/L (≈ 16.4 to 74.7 µM) |  |  | 7.75 to 35.4 mg/L (≈ 16.4 to 74.7 µM) | O=C1S/C(=C\c2ccc(Cl)cc2)C(=O)N1Cc1ccc(-c2ccccc2-c2nnn[nH]2)cc1 |  |  |  |  |  | 
> 320 mg/L | > 320 mg/L | > 320 mg/L |  |  |  | CC(C)(C)Nc1c(-c2cc3ccccc3n3nnnc23)nc2sccn12 |  |  |  |  |  | 
6.25 to 100 mg/L (≈ 19.9 to 318 µM) | 6.25 to 100 mg/L (≈ 19.9 to 318 µM) | 6.25 to 100 mg/L (≈ 19.9 to 318 µM) | 6.25 to 100 mg/L (≈ 19.9 to 318 µM) | 6.25 to 100 mg/L (≈ 19.9 to 318 µM) |  | Cc1ccc2c(c1)cc(/C=C/C(=O)c1ccccc1)c1nnnn12 |  |  |  |  |  | 
6.25 to 100 mg/L (≈ 19.9 to 318 µM) | 6.25 to 100 mg/L (≈ 19.9 to 318 µM) | 6.25 to 100 mg/L (≈ 19.9 to 318 µM) | 6.25 to 100 mg/L (≈ 19.9 to 318 µM) | 6.25 to 100 mg/L (≈ 19.9 to 318 µM) |  | Cc1ccc2cc(/C=C/C(=O)c3ccccc3)c3nnnn3c2c1 |  |  |  |  |  | 
> 320 mg/L | > 320 mg/L | > 320 mg/L |  |  |  | c1ccc(CCNc2c(-c3cc4ccccc4n4nnnc34)nc3sccn23)cc1 |  |  |  |  |  | 
6.25 to 100 mg/L (≈ 17.9 to 287 µM) | 6.25 to 100 mg/L (≈ 17.9 to 287 µM) | 6.25 to 100 mg/L (≈ 17.9 to 287 µM) | 6.25 to 100 mg/L (≈ 17.9 to 287 µM) | 6.25 to 100 mg/L (≈ 17.9 to 287 µM) |  | Cc1ccc2c(c1)cc(/C=C/C(=O)c1ccc(Cl)cc1)c1nnnn12 |  |  |  |  |  | 
50 to 400 mg/L (≈ 142 to 1140 µM) | 50 to 400 mg/L (≈ 142 to 1140 µM) | 50 to 400 mg/L (≈ 142 to 1140 µM) |  |  | 50 to 400 mg/L (≈ 142 to 1140 µM) | Cc1ccc2c(=O)c(OCc3nnn[nH]3)c(-c3ccc(F)cc3)oc2c1 |  |  |  |  |  | 
 |  | 7.75 to 35.4 mg/L (≈ 16.4 to 74.7 µM) |  |  | 7.75 to 35.4 mg/L (≈ 16.4 to 74.7 µM) | O=C1S/C(=C\c2ccccc2Cl)C(=O)N1Cc1ccc(-c2ccccc2-c2nnn[nH]2)cc1 |  |  |  |  |  | 
3.12 to 100 mg/L (≈ 7.41 to 237 µM) | 3.12 to 100 mg/L (≈ 7.41 to 237 µM) | 3.12 to 100 mg/L (≈ 7.41 to 237 µM) | 3.12 to 100 mg/L (≈ 7.41 to 237 µM) | 3.12 to 100 mg/L (≈ 7.41 to 237 µM) |  | Cc1ccc2c(c1)cc(C1CC(c3ccc(Cl)cc3)=NN1C(N)=S)c1nnnn12 (stereo not drawn) |  |  |  |  |  | 
> 320 mg/L | > 320 mg/L | > 320 mg/L |  |  |  | c1ccc2c(c1)cc(-c1nc3sccn3c1NC1CCCCC1)c1nnnn12 |  |  |  |  |  | 

Source: ChEMBL document CHEMBL4342421, “Current scenario of tetrazole hybrids for antibacterial activity” (Eur J Med Chem, 2019)
